# From ChEMBL document CHEMBL1129432, “Structure-activity relationships of a series of novel (piperazinylbutyl)thiazolidinone antipsychotic agents related to 3-[4-[4-(6-fluorobenzo[b]thien-3-yl)-1-piperazinyl]butyl]-2,5,5- trimethyl-4-thiazolidinone maleate” (J Med Chem, 1996)
# Legend:
# [1] = target: T1, 5-hydroxytryptamine receptor 1A (Rattus norvegicus, UniProt P19327); experiment: Binding affinity towards serotonin 5-HT1A receptor was determined in rat hippocampus using [3H]8-OH-DPAT as ligand; type: tissue-based
# T1 sequence (P19327 whole entry): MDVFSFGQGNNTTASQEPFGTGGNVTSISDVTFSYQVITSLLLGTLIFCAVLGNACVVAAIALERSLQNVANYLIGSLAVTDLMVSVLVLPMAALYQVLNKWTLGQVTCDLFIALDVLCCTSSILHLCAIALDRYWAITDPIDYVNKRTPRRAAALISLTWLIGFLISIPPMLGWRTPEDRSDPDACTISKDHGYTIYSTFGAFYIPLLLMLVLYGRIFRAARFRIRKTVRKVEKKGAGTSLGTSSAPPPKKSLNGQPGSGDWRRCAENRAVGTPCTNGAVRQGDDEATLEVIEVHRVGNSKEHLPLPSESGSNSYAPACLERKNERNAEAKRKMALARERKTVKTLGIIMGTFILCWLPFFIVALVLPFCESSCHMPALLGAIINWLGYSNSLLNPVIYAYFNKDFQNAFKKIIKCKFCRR
# D(2) dopamine receptor = D(2) dopamine receptor (Rattus norvegicus, UniProt P61169); experiment: Binding affinity towards Dopamine receptor D2 was determined in rat striatum using [3H]- spiperone as radioligand; type: tissue-based
# Chain of D(2) dopamine receptor (P61169 whole entry): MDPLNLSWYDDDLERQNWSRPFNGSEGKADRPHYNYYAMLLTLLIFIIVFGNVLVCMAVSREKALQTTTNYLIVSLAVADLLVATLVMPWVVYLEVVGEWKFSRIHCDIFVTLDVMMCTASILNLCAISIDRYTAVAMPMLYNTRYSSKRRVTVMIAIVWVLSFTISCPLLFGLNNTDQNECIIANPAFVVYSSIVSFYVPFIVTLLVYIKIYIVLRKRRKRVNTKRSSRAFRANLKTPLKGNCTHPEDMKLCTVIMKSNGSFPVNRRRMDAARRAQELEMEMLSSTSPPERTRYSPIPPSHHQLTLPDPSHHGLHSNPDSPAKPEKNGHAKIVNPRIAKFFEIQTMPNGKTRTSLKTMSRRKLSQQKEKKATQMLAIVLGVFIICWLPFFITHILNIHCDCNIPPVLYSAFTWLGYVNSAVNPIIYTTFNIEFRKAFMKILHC
# [2] = target: Serotonin 2 (5-HT2) receptor (Rattus norvegicus, UniProt P30994+P08909+P14842); experiment: Binding affinity towards serotonin 5-HT2 receptor was determined in rat cortex using [3H]spiperone as ligand
# Rattus norvegicus [3] = experiment: Compound at an intraperitoneal dose of 10 mg/Kg was tested for the inhibition of apomorphine-induced stereotypy in rat; type: functional; set-up: scale not given: the % may be the effect or the level left
# [4] = Intraperitoneal effective dose required for inhibition of apomorphine-induced stereotypy in rat; type: functional; conditions: ip
# Rattus norvegicus [5] = experiment: Compound at an intraperitoneal dose of 80 mg/Kg was tested for the inhibition of apomorphine-induced stereotypy in rat; type: functional; set-up: scale not given: the % may be the effect or the level left
# [6] = Compound at an intraperitoneal dose of 40 mg/Kg was tested for the inhibition of apomorphine-induced stereotypy in rat; type: functional; set-up: scale not given: the % may be the effect or the level left
# Rattus norvegicus [7] = experiment: Compound at an intraperitoneal dose of 2.5 mg/Kg was tested for the inhibition of apomorphine-induced stereotypy in rat; type: functional; set-up: scale not given: the % may be the effect or the level left
# Rattus norvegicus [8] = experiment: Compound at an intraperitoneal dose of 5 mg/Kg was tested for the inhibition of apomorphine-induced stereotypy in rat; type: functional; set-up: scale not given: the % may be the effect or the level left
# Rattus norvegicus [9] = experiment: Compound at an intraperitoneal dose of 20 mg/Kg was tested for the inhibition of apomorphine-induced stereotypy in rat; type: functional; set-up: scale not given: the % may be the effect or the level left
SMILES,IC50 [1] [nM],IC50 (D(2) dopamine receptor) [nM],IC50 [2] [nM],other results
O=C1CSCN1CCCCN1CCN(c2cccc(Cl)c2)CC1,57,2210,,
CC1(C)SCN(CCCCN2CCN(c3ccc4ccccc4n3)CC2)C1=O,153,,446,
CC1(C)SCC(=O)N1CCCCN1CCN(c2cccc(Cl)c2)CC1,,835,,
Cc1ccccc1N1CCN(CCCCN2CSCC2=O)CC1,61,1610,,
Cc1cccc(N2CCN(CCCCN3CSCC3=O)CC2)c1,140,12600,,
Cc1ccccc1N1CCN(CCCCN2CSC(C)(C)C2=O)CC1,13,1770,569,
CC1SC(C)(C)C(=O)N1CCCCN1CCN(c2csc3cc(Cl)ccc23)CC1 (stereo not given),855,4730,1540,
CC1(C)SCN(CCCCN2CCN(c3csc4cc(F)ccc34)CC2)C1=O,,14,10,Activity (Rattus norvegicus [3]): 0%
CC1(C)SCN(CCCCN2CCN(c3cc4ccccc4cn3)CC2)C1=O,629,8430,85,
CC1SC2(CCCC2)C(=O)N1CCCCN1CCN(c2cn(-c3ccccc3)c3ccccc23)CC1 (stereo not given),11700,356,98.1,ED50 [4]: 41.7 mg/kg
O=C1CSCN1CCCCN1CCN(c2cccc(C(F)(F)F)c2)CC1,34,1960,,
O=C1CSCN1CCCCN1CCN(c2ccccc2Cl)CC1,23,652,,
CC1(C)SCN(CCCCN2CCN(c3cn(-c4ccc(F)cc4)c4ccccc34)CC2)C1=O,2330,131,53,ED50 [4]: 7.1 mg/kg
COc1ccccc1N1CCN(CCCCN2C(=O)C(C)(C)SC2(C)C)CC1,18,,,
O=C1CSCN1CCCCN1CCN(c2ccc3ccccc3n2)CC1,332,,641,
O=C1N(CCCCN2CCN(c3cn(-c4ccccc4)c4ccccc34)CC2)CSC12CCCCC2,,467,45,ED50 [4]: 27.4 mg/kg
O=C1N(CCCCN2CCN(c3cn(-c4ccc(F)cc4)c4ccccc34)CC2)CSC12CCCCC2,9030,18,142,
O=C1N(CCCCN2CCN(c3csc4ccccc34)CC2)CSC12CCCCC2,102,218,196,Activity (Rattus norvegicus [5]): 50%; Activity [6]: 33%
O=C1N(CCCCN2CCN(C3=NS(=O)(=O)c4ccccc43)CC2)CSC12CCCC2,,,> 20000,
CC(C)(O)C1SCN(CCCCN2CCN(c3csc4cc(F)ccc34)CC2)C1=O (stereo not given),91,453,105,Activity (Rattus norvegicus [7]): 10%; Activity (Rattus norvegicus [8]): 40%
CC1SC2(CCCC2)C(=O)N1CCCCN1CCN(c2csc3cc(Cl)ccc23)CC1 (stereo not given),776,611,580,

SMILES,IC50 [1] [nM],IC50 (D(2) dopamine receptor) [nM],IC50 [2] [nM],other results
CC1SC(C)(C)C(=O)N1CCCCN1CCN(c2cn(-c3ccccc3)c3cc(F)ccc23)CC1 (stereo not given),8080,1090,119,
CC1(C)SCN(CCCCN2CCN(c3cn(-c4ccccc4)c4ccccc34)CC2)C1=O,1730,191,294,ED50 [4]: 19.6 mg/kg
O=C1N(CCCCN2CCN(c3nsc4cc(Cl)ccc34)CC2)CSC12CCCCC2,969,671,1060,Activity (Rattus norvegicus [9]): 0%; Activity [6]: 80%
CC1(C)SC(C)(C)N(CCCCN2CCN(c3nsc4ccccc34)CC2)C1=O,17,201,3.5,
O=C1CSCN1CCCCN1CCN(c2ccc(Cl)cc2)CC1,1280,8760,,
Cc1cccc(N2CCN(CCCCN3CSCC3=O)CC2)c1C,83,778,,
Cc1cccc(N2CCN(CCCCN3C(=O)C(C)(C)SC3(C)C)CC2)c1,38,1840,439,
O=C1CSCN1CCCCN1CCN(c2ccc(F)cc2)CC1,140,,,
CC1SC(C)(C)C(=O)N1CCCCN1CCN(c2nsc3cc(Cl)ccc23)CC1 (stereo not given),,,271,
O=C1N(CCCCN2CCN(c3nsc4ccccc34)CC2)CSC12Cc1ccccc1C2,52,697,1110,Activity (Rattus norvegicus [5]): 50%; Activity [6]: 0%
CC1(C)SCC(=O)N1CCCCN1CCN(c2cccc(C(F)(F)F)c2)CC1,,1130,,
CC1SC(C)(C)C(=O)N1CCCCN1CCN(c2cn(-c3ccccc3)c3ccccc23)CC1 (stereo not given),2550,200,186,Activity (Rattus norvegicus [5]): 67%; Activity [6]: 0%
CC1SC(C)(C)C(=O)N1CCCCN1CCN(c2cn(-c3ccc(F)cc3)c3ccccc23)CC1 (stereo not given),3050,59,126,ED50 [4]: 16.4 mg/kg
O=C1CSCN1CCCCN1CCN(c2nc3ccccc3s2)CC1,367,,8420,
COc1ccccc1N1CCN(CCCCN2CSC(C)C2=O)CC1 (stereo not given),220,,,
COc1cccc(N2CCN(CCCCN3CSCC3=O)CC2)c1,139,7490,,
Cc1cccc(N2CCN(CCCCN3C(=O)CSC3(C)C)CC2)c1,26,3750,,
CC1(C)SCN(CCCCN2CCN(c3nc4ccccc4s3)CC2)C1=O,1370,,2310,
Cc1cc2c(s1)Nc1ccccc1N=C2N1CCN(C)CC1 [OLANZAPINE],,,47,
Cc1nc2n(c(=O)c1CCN1CCC(c3noc4cc(F)ccc34)CC1)CCCC2 [RISPERIDONE],,,,ED50 [4]: 3.2 mg/kg

# More lines, in order of falling IC50 [1], values ahead:
IC50 [1] [nM],IC50 (D(2) dopamine receptor) [nM],IC50 [2] [nM],SMILES,other results
12,29,18.9,CC(C)(O)C1SCN(CCCCN2CCN(c3nsc4ccccc34)CC2)C1=O (stereo not given),ED50 [4]: 2.3 mg/kg
12,,,Cc1cccc(N2CCN(CCCCN3CSC(C)(C)C3=O)CC2)c1,
11,86,5,CC1SCN(CCCCN2CCN(c3nsc4ccccc34)CC2)C1=O (stereo not given),Activity (Rattus norvegicus [9]): 0%; Activity [6]: 17%
11,548,588,COc1ccccc1N1CCN(CCCCN2CSC(C)(C)C2=O)CC1,
11,224,7,O=C1CSCN1CCCCN1CCN(c2nsc3ccccc23)CC1,
10,514,,COc1ccccc1N1CCN(CCCCN2C(=O)CSC2(C)C)CC1,
10,2230,,CC1SCC(=O)N1CCCCN1CCN(c2cccc(Cl)c2)CC1 (stereo not given),
9,2430,503,CSc1cccc(N2CCN(CCCCN3C(=O)CSC3(C)C)CC2)c1,
8,,1,CC1(C)SCN(CCCCN2CCN(c3nsc4ccccc34)CC2)C1=O,ED50 [4]: 8.9 mg/kg
7,193,12,CC1(C)SCC(=O)N1CCCCN1CCN(c2nsc3ccccc23)CC1,
7,,2,CC1SC(C)(C)C(=O)N1CCCCN1CCN(c2nsc3ccccc23)CC1 (stereo not given),Activity (Rattus norvegicus [9]): 0%; Activity [6]: 40%
7,1640,90,CC1(C)SCN(CCCCN2CCN(c3cccc(C(F)(F)F)c3)CC2)C1=O,
6,916,414,Cc1cccc(N2CCN(CCCCN3CSC(C)(C)C3=O)CC2)c1C,
3,136,,O=C1C(CC(F)(F)F)SCN1CCCCN1CCN(c2nsc3ccccc23)CC1 (stereo not given),ED50 [4]: 3.3 mg/kg
2,150,492,COc1ccccc1N1CCN(CCCCN2CSC3(CCCC3)C2=O)CC1,
2,,18,O=C1N(CCCCN2CCN(c3nsc4ccccc34)CC2)CSC12CCCCC2,Activity (Rattus norvegicus [3]): 100%
2,244,16,O=C1N(CCCCN2CCN(c3csc4ccccc34)CC2)CSC12CCCC2,
2,,3,O=C1N(CCCCN2CCN(c3nsc4ccccc34)CC2)CSC12CCCC2,Activity (Rattus norvegicus [3]): 90%
